Experimental data reported in patent publication US6759234B1, “Compositions and methods for administering to humans, peptides capable of down regulating an antigen specific immune response” (Immulogic Pharmaceutical Corporation, priority 1994, dated 2004).
Ends that are not written are not given here.

System: IgG and IgE antibodies to Fel d I, peptide X and peptide Y
Assay: Protocol P92-01 Phase I antibody studies and skin testing with the peptides (antigenicity)
Format: in vivo, human cat-allergic subjects
Settings: Week 8
Procedure: This Phase I, open-label, dose-escalating safety study was conducted to determine the safety of the administration of the peptide X (SEQ ID NO 1) and peptide Y (SEQ ID NO 2). The antigenicity of the components was also evaluated, as was the activity of the peptides in altering skin test sensitivity.
Safety was assessed by evaluations of clinical laboratory parameters, physical examination, antibody studies and adverse experiences. Activity was assessed by analysis of skin testing. Prick and intradermal skin testing with both affinity purified native Fel d I and the peptides were performed one week prior to, and two and six weeks following the treatment period. Sixteen patients were treated with peptides X and Y during the study. […] Adverse events recorded with the trial were typical of those seen in open label allergy studies. Patients were all cat allergic individuals in this trial and tolerated dose orders of magnitude higher than can be achieved with conventional immunotherapy.

| Sequence | skin test reaction to the peptide in a single patient |
| --- | --- |
| KALPVVLENARILKNCVDAKMTEEDKE [peptide Y] | delayed local reaction |
| KRDVDLFLTGTPDEYVEQVAQYKALPV [peptide X] | substantial skin test reaction |
